≈ marks a conversion by molar mass, not a printed value. Where “and” joins values, the source holds several entries; their conditions need not be identical. Identical values can stand only once. Like-named read-outs stand apart in the source and are kept apart here.
What was measured:
[1] = molecular target: T1, papain (Carica papaya, UniProt P00784); test: Cysteine protease inhibitory activity, papain with Bz-DL-Arg-pNA substrate; format: biochemical; conditions: for Type of inhibition: Lineweaver–Burk plot; for IC50: papain
T1 construct: To solutions of active papain (final concentration: 0.05 mM); purchased Sigma Chemical Co., St. Louis, MO, USA
T1 sequence (P00784 134-345): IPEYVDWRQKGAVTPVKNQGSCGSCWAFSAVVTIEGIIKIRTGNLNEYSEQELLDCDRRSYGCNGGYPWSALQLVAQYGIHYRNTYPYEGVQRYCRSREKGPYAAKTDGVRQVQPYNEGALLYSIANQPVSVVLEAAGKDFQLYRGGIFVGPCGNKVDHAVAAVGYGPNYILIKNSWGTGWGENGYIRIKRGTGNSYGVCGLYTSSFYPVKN
Method: The capacity of the 1-pyridylimidazo[1,5-a]pyridine derivatives to inhibit cysteine proteases was tested using papain as the model enzyme. The proteolytic activity of the reaction mixtures was determined using Bz-DL-Arg-pNA as the chromogenic substrate. To solutions of active papain (final concentration: 0.05 mM) were added concentrated solutions of the different derivatives to final concentrations of 0.2 mM. […] The same procedure was used at 32°C and 42°C for thermodynamics studies. The kinetic parameters for the substrate hydrolysis were determined by measuring the initial rate of enzymatic activity. The inhibition constant Ki was determined by Dixon method and also by the Lineweaver–Burk equation. The Km value was calculated from the double-reciprocal equation by fitting the data into the computer software Origin 6.1. The Lineweaver–Burk plot was used to determine the types of inhibition. For the kinetic analysis and rate constant determinations, the assays were carried out in triplicate, and the average value was considered throughout this work.

[2] = system: Serratia morganii (ATCC- 31665); test: MIC, micro dilution method; format: cell-based; conditions: ATCC31665
Method: (§1) The disk diffusion method was used for the preliminary antibacterial evaluation of 1-pyridylimidazo[1,5-a]pyridine derivatives. The MIC50 of these derivatives, showing inhibition in the preliminary tests, were further determined by the microtitre plate technique using micro dilution method. In brief, the bacterial strains (S. aureus, P. vulgaris, Group D Streptococci, Bacillus sp., E. coli, P. aeruginosa and S. morganii)) were grown and diluted to 2×10^5 colony-forming units (CFU)/ml in sodium phosphate buffer (SPB) containing 0.03% Luria–Bertani (LB) broth. The synthesized derivatives were dissolved in DMSO and their serial dilution was performed in 50 µL of LB medium in 96-well microtitre plate to achieve the required concentrations (0.1–10 µg/ml) with bacterial inoculums (5×10^4 CFU per well). DMSO was taken as negative control and Ceftriaxone and clotrimazole were taken as positive control. After incubation at 37°C overnight, the MICs were taken as the lowest inhibitor concentration at which the bacterial growth was inhibited. The average of three values was calculated and that was the MIC for the test material and bacterial strain.
(§2) For the agar plate count method, 25 µL aliquots of bacteria at 1×10^5 CFU/ml in SPB containing 0.03% LB broth were incubated with 25 µL of diluted compounds for 2 h at 37°C. The mixtures of bacteria and compounds were serially diluted 10-fold with SPB and plated on LB plates that were incubated at 37°C overnight. Bacterial colonies were enumerated the following day.

[3] = system: Group D Streptococci (ATCC-12959); test: MIC, micro dilution method; format: cell-based
Method: as §1, §2

[4] = system: Bacillus spp. (ATCC-14593); test: MIC, micro dilution method; format: cell-based; conditions: ATCC14593; Bacillus sp.
[5] = molecular target: T1, papain; test: Thermodynamics analysis of papain inhibition (Van't Hoff); format: biochemical; conditions: Value at 37°C; for ΔH (enthalpy change): Van't Hoff plot
Method: Free energy changes of inhibition of papain against 1- substituted pyridylimidazo[1,5-a] pyridine derivatives (ΔG) were determined by the equation, [drawing 1] (1)
Temperature dependence of the inhibition constants was used to determine the thermodynamic parameters. Changes in enthalpy (ΔH) were determined from the Van’t Hoff plots by using the equation, [drawing 2] (2)
Where ΔH is enthalpy change, R is gas constant, ΔS is entropy change and T is the absolute temperature. The entropy change was obtained from the equation, [drawing 3] (3)

[6] = system: Pseudomonas aeruginosa (ATCC-27853); test: MBC, sub cultivation from MIC plate; format: cell-based
Method: (§3) After having determined the MICs, bacterial strains from the wells of the microtitre plate with no visible bacterial growth were removed for serial sub cultivation of 2 µl into another new microtitre plate containing 100 µl of broth per well and further incubated for 24 h. The lowest concentration with no visible growth was defined as MBC [28], indicating 99.5% killing of the original inoculum. The absorbance of each well was measured at a wavelength of 620 nm by Microplate Manager 4.0 (Bio-Rad laboratories) and compared with a blank. Solvent (DMSO) was used as a negative control. Three replicates were done for each compound and experiment was repeated two times.

[7] = system: Escherichia coli (ATCC-25922); test: MBC, sub cultivation from MIC plate; format: cell-based; conditions: ATCC25922, E. coli
Method: as §3

[8] = system: Serratia morganii (ATCC- 31665); test: MBC, sub cultivation from MIC plate; format: cell-based
Method: as §3

[9] = system: Proteus vulgaris (ATCC-29905); test: MBC, sub cultivation from MIC plate; format: cell-based; conditions: ATCC29905, P. vulgaris
Method: as §3

[10] = system: Group D Streptococci (ATCC-12959); test: MBC, sub cultivation from MIC plate; format: cell-based
Method: as §3

[11] = system: Staphylococcus aureus (ATCC-25923); test: MBC, sub cultivation from MIC plate; format: cell-based; conditions: ATCC25923, S. aureus
Method: as §3

[12] = system: Bacillus spp. (ATCC-14593); test: MBC, sub cultivation from MIC plate; format: cell-based; conditions: ATCC14593, Bacillus sp.
Method: as §3

[13] = system: Pseudomonas aeruginosa (ATCC-27853); test: MIC, micro dilution method; format: cell-based; conditions: ATCC27853
Method: as §1, with “strain. […]” for “strain.”

[14] = system: Escherichia coli (ATCC-25922); test: MIC, micro dilution method; format: cell-based; conditions: ATCC25922, E. coli
Method: as §1, with “strain. […]” for “strain.”

[15] = system: Proteus vulgaris (ATCC-29905); test: MIC, micro dilution method; format: cell-based; conditions: ATCC29905, P. vulgaris
Method: as §1, with “strain. […]” for “strain.”

[16] = system: Staphylococcus aureus (ATCC-25923); test: MIC, micro dilution method; format: cell-based; conditions: ATCC25923, S. aureus
Method: as §1, with “strain. […]” for “strain.”

[17] = system: Bacillus spp. (ATCC-14593); test: MIC, micro dilution method; format: cell-based; conditions: ATCC14593; Bacillus sp.; remark: listed apart in the source
Method: as §1, with “strain. […]” for “strain.”

| SMILES | MIC50 [2] | MIC90 [2] | MIC50 [3] | MIC90 [3] | MIC90 [4] | MBC ([6]; ATCC27853, read-out: MBC50) | MBC ([6]; ATCC27853, read-out: MBC90) | MBC ([7]; read-out: MBC50) | MBC ([7]; read-out: MBC90) | MBC ([8]; ATCC31665, read-out: MBC50) | MBC ([8]; ATCC31665, read-out: MBC90) | MBC ([9]; read-out: MBC50) | MBC ([9]; read-out: MBC90) | MBC ([10]; read-out: MBC50) | MBC ([10]; read-out: MBC90) | MBC ([11]; read-out: MBC50) | MBC ([11]; read-out: MBC90) | MBC ([12]; read-out: MBC50) | MBC ([12]; read-out: MBC90) | MIC50 [13] | other results |
| --- | --- | --- | --- | --- | --- | --- | --- | --- | --- | --- | --- | --- | --- | --- | --- | --- | --- | --- | --- | --- | --- |
| CC(C)(C)c1cc(-c2nc(-c3ccccn3)c3ccccn23)cc(C(C)(C)C)c1O [Compound 3d, 1-(2-pyridyl)-3-(3,5-di-tert-butyl-4-hydroxyphenyl) imidazo[1,5-a]pyridine] | 1.1 µg/mL (≈ 2.75 µM) | 2.1 µg/mL (≈ 5.26 µM) | 1 µg/mL (≈ 2.5 µM) | 1.9 µg/mL (≈ 4.76 µM) | 2.6 µg/mL (≈ 6.51 µM) | 2.4 µg/mL (≈ 6.01 µM) | 4.4 µg/mL (≈ 11 µM) | 2.5 µg/mL (≈ 6.26 µM) | 4.9 µg/mL (≈ 12.3 µM) | 2.4 µg/mL (≈ 6.01 µM) | 4.4 µg/mL (≈ 11 µM) | 1.7 µg/mL (≈ 4.25 µM) | 3.4 µg/mL (≈ 8.51 µM) | 2.3 µg/mL (≈ 5.76 µM) | 4.4 µg/mL (≈ 11 µM) | 2.6 µg/mL (≈ 6.51 µM) | 5.2 µg/mL (≈ 13 µM) | 2.5 µg/mL (≈ 6.26 µM) | 4.7 µg/mL (≈ 11.8 µM) | 1.2 µg/mL (≈ 3 µM) | Ki ([1]; 32°C): 110 µM; Ki ([1]; 37°C): 99.3 µM; Ki ([1]; 42°C): 89.2 µM; Type of inhibition [1]: Non -Competitive; IC50 [1]: 96.5 µM; ΔG (free energy of binding) [5]: −5.64 Kcalmol^−1 and −5.64(±0.24) Kcalmol^−1; ΔS (entropy change) [5]: 59.73(±1.93) Jmol-K^−1; ΔH (enthalpy change) [5]: −5.2 (±0.84) KJmol^−1; MIC90 [13]: 2 µg/mL (≈ 5.01 µM); MIC50 [14]: 1.2 µg/mL (≈ 3 µM); MIC90 [14]: 2.3 µg/mL (≈ 5.76 µM); MIC50 [15]: 0.9 µg/mL (≈ 2.25 µM); MIC90 [15]: 1.7 µg/mL (≈ 4.25 µM); MIC50 [16]: 1.2 µg/mL (≈ 3 µM); MIC90 [16]: 2.3 µg/mL (≈ 5.76 µM); MIC50 [17]: 1.4 µg/mL (≈ 3.5 µM) |
| Oc1ccccc1-c1nc(-c2ccccn2)c2ccccn12 [Compound 3a, 1-(2-pyridyl)-3-(2-hydroxyphenyl) imidazo[1,5-a]pyridine] | 0.8 µg/mL (≈ 2.78 µM) | 1.5 µg/mL (≈ 5.22 µM) | 0.7 µg/mL (≈ 2.44 µM) | 1.3 µg/mL (≈ 4.52 µM) | 1.2 µg/mL (≈ 4.18 µM) | 1.1 µg/mL (≈ 3.83 µM) | 1.9 µg/mL (≈ 6.61 µM) | 1.3 µg/mL (≈ 4.52 µM) | 2.1 µg/mL (≈ 7.31 µM) | 1.6 µg/mL (≈ 5.57 µM) | 3.1 µg/mL (≈ 10.8 µM) | 1.6 µg/mL (≈ 5.57 µM) | 3.1 µg/mL (≈ 10.8 µM) | 1.3 µg/mL (≈ 4.52 µM) | 2.5 µg/mL (≈ 8.7 µM) | 1.8 µg/mL (≈ 6.26 µM) | 3.5 µg/mL (≈ 12.2 µM) | 1.2 µg/mL (≈ 4.18 µM) | 2.3 µg/mL (≈ 8 µM) | 0.6 µg/mL (≈ 2.09 µM) | Ki ([1]; 32°C): 14.3 µM; Ki ([1]; 37°C): 13.7 µM; Ki ([1]; 42°C): 11.1 µM; Type of inhibition [1]: Non- Competitive; IC50 [1]: 13.4 µM; ΔG (free energy of binding) [5]: −6.86 Kcalmol^−1 and −6.86(±0.30) Kcalmol^−1; ΔS (entropy change) [5]: 72.92 (±2.33) Jmol-K^−1; ΔH (enthalpy change) [5]: −6.2(±0.88) KJmol^−1; MIC90 [13]: 1.09 µg/mL (≈ 3.79 µM); MIC50 [14]: 0.6 µg/mL (≈ 2.09 µM); MIC90 [14]: 0.99 µg/mL (≈ 3.45 µM); MIC50 [15]: 0.8 µg/mL (≈ 2.78 µM); MIC90 [15]: 1.6 µg/mL (≈ 5.57 µM); MIC50 [16]: 0.9 µg/mL (≈ 3.13 µM); MIC90 [16]: 1.7 µg/mL (≈ 5.92 µM); MIC50 [17]: 0.6 µg/mL (≈ 2.09 µM) |
| CO/N=C(\C(=O)N[C@@H]1C(=O)N2C(C(=O)O)=C(CSc3nc(=O)c(=O)[nH]n3C)CS[C@H]12)c1csc(N)n1 [Ceftriaxone, reference compound] | 0.9 µg/mL (≈ 1.62 µM) | 1.5 µg/mL (≈ 2.7 µM) | 0.08 µg/mL (≈ 0.144 µM) | 1.4 µg/mL (≈ 2.52 µM) | 1.6 µg/mL (≈ 2.89 µM) | 3.2 µg/mL (≈ 5.77 µM) | 5.5 µg/mL (≈ 9.92 µM) | 0.14 µg/mL (≈ 0.252 µM) | 0.24 µg/mL (≈ 0.433 µM) | 1.7 µg/mL (≈ 3.07 µM) | 3.3 µg/mL (≈ 5.95 µM) | 0.9 µg/mL (≈ 1.62 µM) | 1.2 µg/mL (≈ 2.16 µM) | 1.5 µg/mL (≈ 2.7 µM) | 1.9 µg/mL (≈ 3.43 µM) | 7 µg/mL (≈ 12.6 µM) | 10 µg/mL (≈ 18 µM) | 1.7 µg/mL (≈ 3.07 µM) | 3.1 µg/mL (≈ 5.59 µM) | 1.5 µg/mL (≈ 2.7 µM) | MIC90 [13]: 3 µg/mL (≈ 5.41 µM); MIC50 [14]: 0.07 µg/mL (≈ 0.126 µM); MIC90 [14]: 0.12 µg/mL (≈ 0.216 µM); MIC50 [15]: 0.4 µg/mL (≈ 0.721 µM); MIC90 [15]: 0.8 µg/mL (≈ 1.44 µM); MIC50 [16]: 3.8 µg/mL (≈ 6.85 µM); MIC90 [16]: 6 µg/mL (≈ 10.8 µM); MIC50 [17]: 0.8 µg/mL (≈ 1.44 µM) |
